For experiment [1], the target named is T1, TGR (Schistosoma mansoni, UniProt Q962Y6).
T1 construct: made in house
T1 sequence (Q962Y6 1-598): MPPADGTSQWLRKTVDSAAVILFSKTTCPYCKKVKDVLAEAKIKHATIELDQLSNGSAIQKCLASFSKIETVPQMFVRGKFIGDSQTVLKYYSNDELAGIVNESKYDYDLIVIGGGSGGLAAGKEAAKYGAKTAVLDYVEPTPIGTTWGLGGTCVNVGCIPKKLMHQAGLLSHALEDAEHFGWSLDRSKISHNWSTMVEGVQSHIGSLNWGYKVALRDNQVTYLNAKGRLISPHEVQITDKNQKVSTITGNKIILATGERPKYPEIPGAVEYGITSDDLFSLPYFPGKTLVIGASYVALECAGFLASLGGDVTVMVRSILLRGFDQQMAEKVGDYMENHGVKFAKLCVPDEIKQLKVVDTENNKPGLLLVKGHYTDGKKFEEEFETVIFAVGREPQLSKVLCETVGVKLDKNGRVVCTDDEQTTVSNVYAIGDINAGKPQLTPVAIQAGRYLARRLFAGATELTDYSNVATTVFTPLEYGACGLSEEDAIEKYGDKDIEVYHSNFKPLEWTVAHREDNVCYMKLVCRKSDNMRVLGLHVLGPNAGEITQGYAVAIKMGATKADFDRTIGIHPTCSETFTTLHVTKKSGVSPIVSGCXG
Type of experiment: biochemical, S. mansoni. The following applies: for mode of inhibition (NADPH varied): steady state. As to the method: Master mixes with varying concentrations of NADPH were made, each with 2 nM TGR in reaction buffer. Inhibitor (2 µl) was added to a 96 well microplate in triplicate for each NADPH and inhibitor concentration, and 192 µl of the master buffer was added to each well. The reaction incubated for 15 min and 6 µl of 50 mM DTNB was added to each well. The kinetic rate was measured at A412 for 5 min.

The target of experiment [2] is T1, TGR. In kind it is biochemical, S. mansoni. The conditions noted are these: 6 hr preincubation.
Experiment [3] concerns S. mansoni juvenile worms. The arrangement: method as in PMID 15013742. The conditions noted are these: cited from earlier work.
The subject of experiment [4] is adult worms. The arrangement: method as in PMID 15013742. The conditions noted are these: overnight exposure followed by 8 days culture; cited from earlier work.
Experiment [5] relates to adult worms in mice. The arrangement: method as in PMID 15013742. The following applies: cited from earlier work.

We go through 2 compounds from article PMC10287695, “Non-covalent inhibitors of thioredoxin glutathione reductase with schistosomicidal activity in vivo” (Nature Communications, 2023).

Molecules are shown by their SMILES. Like-named read-outs stand apart in the source and are kept apart here.

`Cc1oc(-c2ccccc2)nc1CN[C@@H]1C[C@@H]2C[C@H]([C@H]1C)C2(C)C` [Compound 3]: the Vmax is 0.0086 ± 0.0003 ΔA412/min in experiment [1] (70 µM inhibitor, 6 hr preincubation); 0.011 ± 0.0002 ΔA412/min in experiment [2] (35 µM inhibitor); 0.0096 ± 0.0002 ΔA412/min in experiment [2] (50 µM inhibitor). Besides, the avg rate in experiment [1] (NADPH 3 µM, 35 µM compound) was determined as 0.003992; in experiment [1] (NADPH 3 µM, 50 µM compound), 0.003778; in experiment [1] (NADPH 3 µM, 70 µM compound) it was 0.003468; in experiment [1] (NADPH 10 µM, 35 µM compound), 0.007014; in experiment [1] (NADPH 10 µM, 50 µM compound), 0.006219; in experiment [1] (NADPH 10 µM, 70 µM compound), 0.005582. The avg rate in experiment [1] (NADPH 30 µM, 35 µM compound) turned out to be 0.009551; in experiment [1] (NADPH 30 µM, 50 µM compound), 0.008305; in experiment [1] (NADPH 30 µM, 70 µM compound), 0.007122; in experiment [1] (NADPH 100 µM, 35 µM compound), 0.01022; in experiment [1] (NADPH 100 µM, 50 µM compound), 0.009229; in experiment [1] (NADPH 100 µM, 70 µM compound) it was 0.00846. Further, the “mode of inhibition (NADPH varied)” value is listed as “uncompetitive inhibition” in experiment [1] and “uncompetitive behavior” in experiment [1] (listed as 3 (8VP83)).

Regarding `O=C(C1CCCCC1)N1CC(=O)N2CCc3ccccc3C2C1` (stereo not drawn) [PZQ, praziquantel], in experiment [3], the “LD50 of PZQ against ex vivo S. mansoni juvenile worms” value was 413 µM. In experiment [4], the “LD50 against adult worms, female” value is given as 5.1 µM and the “LD50 against adult worms, male” value is on record as 1.5 µM. Moreover, the “ED50 against adult worms in mice” value in experiment [5] is on record as 80 mg/kg.
